Experimental data: patent US20240360154A1, “AROYL SUBSTITUTED TRICYCLIC COMPOUND, PREPARATION METHOD THEREFOR AND USE THEREOF” (GENFLEET THERAPEUTICS (SHANGHAI) INC., priority 2020, published 2024)

How the values were obtained:
BTK = BTK (Homo sapiens (Human), UniProt Q06187); experiment: BTK enzyme experiment (ADP-Glo kinase assay); assay type: biochemical; conditions: 10 nM BTK, ATP 125 μM, Poly(Glu4, Tyr1), 90 minutes at 20° C.; read-out: BTK(WT) IC50
Procedure: (§1) A 3-fold gradient concentration stock solution of 1000× compound was prepared using DMSO and diluted 100-fold to 10× compound stock solution using reaction buffer (50 mM HEPES, pH 7.5, 0.0015% Briji-35, 2 mM DTT, 10 mM MgCl2), and the 10× compound stock solution was transferred to a 384-well plate. Enzyme reactions were set up with BTK Kinase Enzyme System (Promega Catalog #V2941) or BTK (C481S) Kinase Enzyme System (Promega Catalog #VA7033). First, a 2× enzyme solution containing 10 nM BTK or 10 nM BTK C481S was prepared with reaction buffer and added to the plate, and incubated with the compound for 10 minutes. […] Finally, the kinase activity was detected according to the experimental steps provided by ADP-Glo™ kinase Assay Kit (Promega, #V9101), and finally the luminescence chemiluminescence value was read. DMSO was used as the maximum signal value, and adding no enzyme was used as the minimum signal value. The inhibition rate of the compound (%)=(maximum signal value−compound signal value)/(maximum signal value−minimum signal value)×100% was calculated. The compound gradient dilution concentration and the corresponding inhibition rate of the enzyme activity were fit by using XLFit four-parameter method, and IC50 value was calculated.

BTK (C481S) = BTK (C481S) (Homo sapiens (Human), UniProt Q06187, C481S); experiment: BTK C481S enzyme experiment (ADP-Glo kinase assay); assay type: biochemical; conditions: 10 nM BTK C481S, ATP 125 μM, Poly(Glu4, Tyr1), 90 minutes at 20° C.
Sequence of BTK (C481S) (Q06187 whole entry C481S): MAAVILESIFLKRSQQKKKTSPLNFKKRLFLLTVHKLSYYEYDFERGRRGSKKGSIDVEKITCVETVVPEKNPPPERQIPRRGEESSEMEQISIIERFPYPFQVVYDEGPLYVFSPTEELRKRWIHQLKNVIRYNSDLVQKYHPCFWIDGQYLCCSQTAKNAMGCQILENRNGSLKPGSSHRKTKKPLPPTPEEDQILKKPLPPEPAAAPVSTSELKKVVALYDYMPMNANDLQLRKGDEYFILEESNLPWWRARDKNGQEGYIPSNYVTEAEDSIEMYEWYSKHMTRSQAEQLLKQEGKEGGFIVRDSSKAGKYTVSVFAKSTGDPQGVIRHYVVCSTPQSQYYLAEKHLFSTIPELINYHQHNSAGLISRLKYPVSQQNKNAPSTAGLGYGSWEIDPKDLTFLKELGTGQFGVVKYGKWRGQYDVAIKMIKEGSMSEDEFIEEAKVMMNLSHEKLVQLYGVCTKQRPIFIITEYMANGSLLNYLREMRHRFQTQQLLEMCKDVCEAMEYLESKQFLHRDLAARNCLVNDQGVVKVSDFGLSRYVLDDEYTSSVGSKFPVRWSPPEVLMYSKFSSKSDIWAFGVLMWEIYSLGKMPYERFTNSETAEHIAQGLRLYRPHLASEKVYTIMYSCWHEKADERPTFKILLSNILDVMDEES
Procedure: as §1

Sequence of BTK (Q06187 whole entry): as the sequence (Q06187 whole entry C481S) above, with S481C counted along it

IC50 (BTK)	IC50 (BTK (C481S))	SMILES
145 nM	87.7 nM	O=C(c1ccc(Oc2ccccc2)cc1Cl)c1c[nH]c2ncc3c(c12)NC1(CCOC1)CO3 (stereo not shown) [Z18]
22.9 nM	18.4 nM	Cc1ccnc(Oc2ccc(C(=O)c3c[nH]c4ncc5c(c34)NC(C)(CO)C(=O)N5)c(Cl)c2)c1 (stereo not shown) [Z56, 9-(2-chloro-4-((4-methylpyridin-2-yl)oxy)benzoyl)-2-(hydroxymethyl)-2-methyl-1,2,4,7-tetrahydro-3H-pyrrolo[3′,2′:5,6]pyrido[3,4-b]pyrazin-3-one]
23.5 nM	19.2 nM	COC[C@]1(C)Nc2c(cnc3[nH]cc(C(=O)c4ccc(Oc5ccccc5)cc4F)c23)NC1=O (single isomer, unassigned) [Z71-2]
76.6 nM	115 nM	[2H]C([2H])([2H])OC[C@]1(C)Nc2c(cnc3[nH]cc(C(=O)c4ccc(Cn5ccc(C)n5)cc4Cl)c23)NC1=O [Z174, (S)-9-(2-chloro-4-((3-methyl-1H-pyrazol-1-yl)methyl)benzoyl)-2-((methoxy-d3)methyl)-2-methyl-1,2,4,7-tetrahydro-3H-pyrrolo[3′,2′:5,6]pyrido[3,4-b]pyrazin-3-one]
8.4 nM	17.2 nM	COCC1(C)Nc2c(cnc3[nH]cc(C(=O)c4ccc(Oc5cc(C)ccn5)cc4Cl)c23)NC1=O (single isomer, unassigned) [Z64-2, 9-(2-chloro-4-((4-methylpyridin-2-yl)oxy)benzoyl)-2-(methoxymethyl)-2-methyl-1,2,4,7-tetrahydro-3H-pyrrolo[3′,2′:5,6]pyrido[3,4-b]pyrazin-3-one]
74.4 nM	76.5 nM	[2H]C([2H])([2H])OC[C@]1(C)Nc2c(cnc3[nH]cc(C(=O)c4ccc(Cn5nccc5C)cc4Cl)c23)NC1=O [Z175, (S)-9-(2-chloro-4-((5-methyl-1H-pyrazol-1-yl)methyl)benzoyl)-2-((methoxy-d3)methyl)-2-methyl-1,2,4,7-tetrahydro-3H-pyrrolo[3′,2′:5,6]pyrido[3,4-b]pyrazin-3-one]
23.8 nM	27.8 nM	COC[C@]1(C)Nc2c(cnc3[nH]cc(C(=O)c4ccc(Oc5ccccc5)cc4Cl)c23)NC1=S [Z202, (S)-(2-chloro-4-phenoxyphenyl)(2-(methoxymethyl)-2-methyl-3-thioxo-2,3,4,7-tetrahydro-1H-pyrrolo[3′,2′:5,6]pyrido[3,4-b]pyrazin-9-yl)methanone]
50.4 nM	60.3 nM	COC[C@]1(C)Nc2c(cnc3[nH]cc(C(=O)c4ccc(Oc5cc(C)cc(C)n5)cc4F)c23)NC1=O [Z189-1, (S)-9-(4-((4,6-dimethylpyridin-2-yl)oxy)-2-fluorobenzoyl)-2-(methoxymethyl)-2-methyl-1,2,4,7-tetrahydro-3H-pyrrolo[3′,2′:5,6]pyrido[3,4-b]pyrazin-3-one]
142 nM	120 nM	CC1(CO)Nc2c(cnc3[nH]cc(C(=O)c4ccc(Oc5ncccc5C(F)(F)F)cc4Cl)c23)NC1=O (stereo not shown) [Z55, 9-(2-chloro-4-((3-(trifluoromethyl)pyridin-2-yl)oxy)benzoyl)-2-(hydroxymethyl)-2-methyl-4,7-dihydro-1H-pyrrolo[3′,2′:5,6]pyrido[3,4-b]pyrazin-3(2H)-one]
23.4 nM	7.5 nM	COC[C@]1(C)Nc2c(cnc3[nH]cc(C(=O)c4ccccc4)c23)NC1=O [Z89, (S)-9-benzoyl-2-(methoxymethyl)-2-methyl-1,2,4,7-tetrahydro-3H-pyrrolo[3′,2′:5,6]pyrido[3,4-b]pyrazin-3-one]
28.4 nM	36.5 nM	[2H]C([2H])([2H])OC[C@]1(C)Nc2c(cnc3[nH]cc(C(=O)c4ccc(Cn5cccn5)cc4Cl)c23)NC1=O [Z170, (S)-9-(4-((1H-pyrazol-1-yl)methyl)-2-chlorobenzoyl)-2-((methoxy-d3)methyl)-2-methyl-1,2,4,7-tetrahydro-3H-pyrrolo[3′,2′:5,6]pyrido[3,4-b]pyrazin-3-one]
